Measurements: ChEMBL document CHEMBL1201862, “PubChem BioAssay data set” (2004)
The source made the active and inactive calls.

Tests used:
[1] = alpha-synuclein stem-loop luciferase translation blockers – H4 neuroglioma cells, luminescence, confirmation (AID 1988); assay type: functional, cell-based
[2] = toxicity toward HepG2 liver cells – cell-based, plate reader, cherry-pick, antagonist series, cytotoxicity control, dose response (AID 743416); assay type: functional
[3] = reduced cellular PGC1a acetyl-lysine signal – cell-based, cherry-picked samples, dose response (AID 720514); assay type: functional;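 also: potency may reflect raised or lowered acetylation signal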
CHO = CHO cell viability loss, potency – luminescence, cytotoxicity control for TLR9-MyD88 binding inhibitor project, dose response (AID 588339); assay type: functional, cell-based, hamster; conditions: Cricetulus griseus;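 also: CHO cells stably coexpressing TLR9 and MyD88 fusions from primary screen; compound exposure lasted 48 hours before viability readout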
[4] = molecular target: T1, Kappa-type opioid receptor (Homo sapiens, UniProt P41145); assay type: functional
T1 sequence (P41145 whole entry): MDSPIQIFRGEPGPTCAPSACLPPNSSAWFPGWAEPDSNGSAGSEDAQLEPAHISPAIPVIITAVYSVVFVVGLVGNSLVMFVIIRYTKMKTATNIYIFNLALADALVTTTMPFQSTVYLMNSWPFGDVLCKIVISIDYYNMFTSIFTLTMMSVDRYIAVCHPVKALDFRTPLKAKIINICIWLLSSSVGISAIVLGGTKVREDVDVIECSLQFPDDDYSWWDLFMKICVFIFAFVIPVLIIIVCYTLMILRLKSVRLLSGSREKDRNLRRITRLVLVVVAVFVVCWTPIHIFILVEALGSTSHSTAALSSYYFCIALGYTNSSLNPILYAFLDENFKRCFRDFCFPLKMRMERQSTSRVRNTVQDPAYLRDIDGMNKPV

[5] = Trypanosoma cruzi growth suppression in host cells – NIH3T3 host cells, beta-gal luminescence, confirmation (AID 2044); assay type: functional, cell-based;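 also: intracellular parasites grown in NIH/3T3 mouse fibroblasts as host cells; luminescent beta-galactosidase reporter signal from transgenic T. cruzi replicating inside host cells; inhibitors lower the luminescence signal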
Beta-galactosidase = Beta-galactosidase (Escherichia coli, UniProt Q8VNN2); assay type: functional
[6] = molecular target: T2, Delta-type opioid receptor (Homo sapiens, UniProt P41143); experiment: HTS Image-Based Screen for Antagonists of the DOR Receptor. [Related pubchem assays (depositor defined):AID1777, AID1785, AID1786, AID2133]; assay type: functional
T2 sequence (P41143 whole entry): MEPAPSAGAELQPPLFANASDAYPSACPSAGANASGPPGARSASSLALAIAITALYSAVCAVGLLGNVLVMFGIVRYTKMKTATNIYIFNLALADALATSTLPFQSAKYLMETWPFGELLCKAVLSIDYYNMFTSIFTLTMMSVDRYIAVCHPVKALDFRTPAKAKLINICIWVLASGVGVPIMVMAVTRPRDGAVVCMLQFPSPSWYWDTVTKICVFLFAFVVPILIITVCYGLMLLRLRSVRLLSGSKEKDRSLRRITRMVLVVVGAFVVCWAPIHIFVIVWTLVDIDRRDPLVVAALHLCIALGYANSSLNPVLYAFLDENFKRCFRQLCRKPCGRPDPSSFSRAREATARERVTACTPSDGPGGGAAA

Mu-type opioid receptor = Mu-type opioid receptor (Homo sapiens, UniProt P35372); experiment: HTS Image-Based Screen for Agonists of the MOR Receptor. [Related pubchem assays (depositor defined):AID1777, AID1785, AID1786, AID2133]; assay type: functional;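 also: imaging of beta-arrestin GFP recruitment into spots after receptor activation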
Mu-type opioid receptor, sequence (P35372 whole entry): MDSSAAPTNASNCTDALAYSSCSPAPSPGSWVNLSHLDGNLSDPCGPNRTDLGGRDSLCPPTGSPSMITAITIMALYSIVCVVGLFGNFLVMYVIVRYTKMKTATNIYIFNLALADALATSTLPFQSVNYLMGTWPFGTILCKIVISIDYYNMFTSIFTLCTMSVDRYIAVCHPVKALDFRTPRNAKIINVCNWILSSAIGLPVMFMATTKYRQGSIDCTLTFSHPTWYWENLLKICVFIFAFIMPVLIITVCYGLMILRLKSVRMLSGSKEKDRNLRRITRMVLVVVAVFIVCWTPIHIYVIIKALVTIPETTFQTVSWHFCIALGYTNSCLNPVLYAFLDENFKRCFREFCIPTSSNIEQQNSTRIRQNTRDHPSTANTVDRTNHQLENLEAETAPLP

Paired box protein Pax-8 = Paired box protein Pax-8 (Homo sapiens, UniProt Q06710); experiment: PAX8 transcriptional activity inhibition in RMG-I – RMG-I cells, luciferase, cherry-pick, dose response (AID 687027); assay type: functional, cell-based;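 also: luciferase reporter driven by Pax8 target thyroperoxidase promoter measured by SteadyGlo luminescence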
Paired box protein Pax-8, sequence (Q06710 whole entry): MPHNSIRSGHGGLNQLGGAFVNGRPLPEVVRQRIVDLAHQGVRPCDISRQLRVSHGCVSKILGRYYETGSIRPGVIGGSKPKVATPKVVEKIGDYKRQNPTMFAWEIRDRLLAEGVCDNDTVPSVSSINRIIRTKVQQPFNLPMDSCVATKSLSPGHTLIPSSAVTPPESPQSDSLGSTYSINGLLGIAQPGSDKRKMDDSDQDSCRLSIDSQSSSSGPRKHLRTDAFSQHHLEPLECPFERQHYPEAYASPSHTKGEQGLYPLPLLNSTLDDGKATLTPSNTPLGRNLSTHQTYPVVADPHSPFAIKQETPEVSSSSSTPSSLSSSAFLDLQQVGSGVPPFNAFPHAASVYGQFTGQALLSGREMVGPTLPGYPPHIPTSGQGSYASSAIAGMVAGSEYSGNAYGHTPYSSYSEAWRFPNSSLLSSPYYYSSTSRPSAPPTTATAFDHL

[7] = viability loss in HEK293 cells – cell-based, plate reader, cherry-picked samples, cytotoxicity control, dose response (AID 743446); assay type: functional
[8] = molecular target: T3, Heat shock factor protein 1 (Mus musculus, UniProt P38532); experiment: enhancement of HSF1-driven luciferase signal – cell-based, NIH3T3, luminescence, dose retest, confirmation (AID 435004); assay type: functional;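 also: stress induced by proteasome inhibitor MG132 added 30 min after compound; luciferase reporter driven by HSF1 response element in NIH3T3 cells; actives raise luminescence as potentiators of the MG132 stress response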
T3 sequence (P38532 whole entry): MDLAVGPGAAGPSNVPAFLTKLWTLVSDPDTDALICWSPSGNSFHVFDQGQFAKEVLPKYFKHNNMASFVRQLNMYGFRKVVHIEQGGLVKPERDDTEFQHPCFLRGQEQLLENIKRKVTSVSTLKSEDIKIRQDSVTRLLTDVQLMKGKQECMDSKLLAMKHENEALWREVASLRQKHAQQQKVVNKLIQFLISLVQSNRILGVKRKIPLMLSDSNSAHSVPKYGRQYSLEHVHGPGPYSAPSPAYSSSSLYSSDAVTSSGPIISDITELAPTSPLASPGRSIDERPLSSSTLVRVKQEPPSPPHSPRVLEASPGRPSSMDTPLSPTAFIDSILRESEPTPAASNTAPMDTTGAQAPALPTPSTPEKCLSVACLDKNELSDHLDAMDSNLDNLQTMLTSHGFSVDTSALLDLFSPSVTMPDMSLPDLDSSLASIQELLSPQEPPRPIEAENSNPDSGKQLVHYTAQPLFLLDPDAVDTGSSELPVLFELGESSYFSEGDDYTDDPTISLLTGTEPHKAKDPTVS

Beta Lactamase = Beta Lactamase (Pseudomonas aeruginosa, UniProt Q932Y6); experiment: BLA reporter interference, concentration series – BLA reporter cells, FRET fluorescence, artefact control for TLR9-MyD88 binding inhibitor project, dose response (AID 588341); assay type: cell-based;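 also: cell based assay in CHO-K1 cells stably expressing beta-lactamase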
Beta Lactamase, sequence (Q932Y6 whole entry): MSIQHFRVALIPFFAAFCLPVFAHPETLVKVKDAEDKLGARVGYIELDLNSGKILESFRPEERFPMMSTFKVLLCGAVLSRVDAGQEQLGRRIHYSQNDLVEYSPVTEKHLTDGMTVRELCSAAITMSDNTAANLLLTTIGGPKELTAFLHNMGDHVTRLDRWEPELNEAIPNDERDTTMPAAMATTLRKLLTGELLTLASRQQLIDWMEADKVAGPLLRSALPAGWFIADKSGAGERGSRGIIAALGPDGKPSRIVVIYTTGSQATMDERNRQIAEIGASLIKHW

[9] = NIH3T3 cell viability loss – ATP luminescence, mouse fibroblasts, counter-screen, dose response (AID 2010); assay type: functional, cell-based;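 also: cells exposed to compound for about 90 hours before reading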
[10] = molecular target: T1, Kappa-type opioid receptor; assay type: functional; remark: listed apart in the source
[11] = A549 cell cytotoxicity, dose response, cytotoxicity control, plate reader, cherry-pick, antagonist series (AID 743412); assay type: functional, cell-based
[12] = blockade of melanocortin 4 receptor signaling – cell-based, plate reader, cherry pick, counter-screen for LGR2 antagonist project, dose response (AID 743444); assay type: functional;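 also: transfected HEK 293 cells stimulated with alpha-MSH peptide; potency of inhibitors of the alpha-MSH evoked signal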
[13] = luciferase reporter signal suppression in cells – H4 neuroglioma cells, luminescence, dose response (AID 1990); assay type: functional, cell-based
[14] = molecular target: T2, Delta-type opioid receptor; experiment: HTS Image-Based Screen for Agonists of the DOR Receptor. [Related pubchem assays (depositor defined):AID1777, AID1786, AID2133]; assay type: functional
[15] = blockers of bursicon-stimulated LGR2 cAMP reporter – cell-based, HEK293, CRE-luciferase reporter, cherry pick, set 2, dose response (AID 743343); assay type: functional;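 also: transfected cells were stimulated with diluted bursicon conditioned medium after compound addition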
[16] = general cell-killing toxicity readout – plate reader, dry powder samples, cytotoxicity control for PAX8 inhibitor project, dose response (AID 743021); assay type: functional, cell-based
[17] = molecular target: T4, Tyrosine-protein phosphatase non-receptor type 7 (Homo sapiens, UniProt P35236); assay type: functional
T4 sequence (P35236 whole entry): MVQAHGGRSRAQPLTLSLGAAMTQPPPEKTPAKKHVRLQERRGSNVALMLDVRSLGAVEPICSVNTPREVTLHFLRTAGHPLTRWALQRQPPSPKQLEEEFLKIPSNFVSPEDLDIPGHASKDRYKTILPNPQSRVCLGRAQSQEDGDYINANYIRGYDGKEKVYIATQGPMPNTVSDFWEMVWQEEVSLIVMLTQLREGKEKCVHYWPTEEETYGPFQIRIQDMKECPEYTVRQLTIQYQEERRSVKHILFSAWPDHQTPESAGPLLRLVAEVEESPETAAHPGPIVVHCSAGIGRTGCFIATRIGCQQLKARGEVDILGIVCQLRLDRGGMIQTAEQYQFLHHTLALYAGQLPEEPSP

[18] = molecular target: T5, Tyrosine-protein phosphatase non-receptor type 22 (Homo sapiens, UniProt Q9Y2R2); assay type: functional
T5 sequence (Q9Y2R2 whole entry): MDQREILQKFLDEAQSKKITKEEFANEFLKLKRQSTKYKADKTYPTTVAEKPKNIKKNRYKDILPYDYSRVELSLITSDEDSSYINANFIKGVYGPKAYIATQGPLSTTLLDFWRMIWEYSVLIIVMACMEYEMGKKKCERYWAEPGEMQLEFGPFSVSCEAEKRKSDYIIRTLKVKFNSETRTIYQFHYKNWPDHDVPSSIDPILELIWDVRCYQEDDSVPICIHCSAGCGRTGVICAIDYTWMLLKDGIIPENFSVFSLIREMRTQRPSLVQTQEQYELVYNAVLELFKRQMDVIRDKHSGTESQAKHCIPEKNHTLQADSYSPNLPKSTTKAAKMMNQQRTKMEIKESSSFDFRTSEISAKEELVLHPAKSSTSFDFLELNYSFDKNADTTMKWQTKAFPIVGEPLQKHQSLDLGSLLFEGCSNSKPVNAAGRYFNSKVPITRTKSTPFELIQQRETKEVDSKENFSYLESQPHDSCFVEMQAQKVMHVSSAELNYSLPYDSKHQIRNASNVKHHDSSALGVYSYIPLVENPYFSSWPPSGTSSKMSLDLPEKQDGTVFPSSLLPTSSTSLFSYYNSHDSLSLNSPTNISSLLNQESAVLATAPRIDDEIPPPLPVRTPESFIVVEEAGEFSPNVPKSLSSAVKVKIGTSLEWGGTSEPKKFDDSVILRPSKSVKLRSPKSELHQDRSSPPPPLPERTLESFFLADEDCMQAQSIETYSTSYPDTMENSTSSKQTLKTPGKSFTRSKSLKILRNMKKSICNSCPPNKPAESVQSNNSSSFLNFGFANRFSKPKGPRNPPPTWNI

[19] = molecular target: T5, Tyrosine-protein phosphatase non-receptor type 22; assay type: functional; remark: listed apart in the source
Exodeoxyribonuclease V = Exodeoxyribonuclease V (Escherichia coli (strain K12), UniProt P04993+P07648+P08394); experiment: RecBCD inhibition via phage-restricted bacterial growth – absorbance, V66 E. coli, mutant T4 phage, counter-screen for AddAB inhibitor project, dose response (AID 492957); assay type: functional, cell-based, Escherichia coli str. K-12 substr. MG1655
Exodeoxyribonuclease V, sequence (P04993 whole entry): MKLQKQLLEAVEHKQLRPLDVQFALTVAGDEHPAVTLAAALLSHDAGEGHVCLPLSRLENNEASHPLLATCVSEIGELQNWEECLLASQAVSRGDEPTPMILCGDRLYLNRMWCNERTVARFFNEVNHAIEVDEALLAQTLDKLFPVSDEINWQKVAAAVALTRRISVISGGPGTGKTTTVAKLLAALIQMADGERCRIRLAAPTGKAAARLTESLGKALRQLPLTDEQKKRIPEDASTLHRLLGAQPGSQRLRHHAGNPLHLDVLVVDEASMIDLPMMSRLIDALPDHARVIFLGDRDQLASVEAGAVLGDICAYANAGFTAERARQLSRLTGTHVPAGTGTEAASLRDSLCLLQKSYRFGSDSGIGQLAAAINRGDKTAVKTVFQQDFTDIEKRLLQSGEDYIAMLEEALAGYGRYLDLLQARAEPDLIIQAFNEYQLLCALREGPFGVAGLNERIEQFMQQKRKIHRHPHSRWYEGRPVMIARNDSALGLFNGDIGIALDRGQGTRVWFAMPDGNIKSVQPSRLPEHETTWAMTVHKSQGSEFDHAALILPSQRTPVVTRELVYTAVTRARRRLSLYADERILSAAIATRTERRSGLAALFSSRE
Exodeoxyribonuclease V, sequence (P07648 whole entry): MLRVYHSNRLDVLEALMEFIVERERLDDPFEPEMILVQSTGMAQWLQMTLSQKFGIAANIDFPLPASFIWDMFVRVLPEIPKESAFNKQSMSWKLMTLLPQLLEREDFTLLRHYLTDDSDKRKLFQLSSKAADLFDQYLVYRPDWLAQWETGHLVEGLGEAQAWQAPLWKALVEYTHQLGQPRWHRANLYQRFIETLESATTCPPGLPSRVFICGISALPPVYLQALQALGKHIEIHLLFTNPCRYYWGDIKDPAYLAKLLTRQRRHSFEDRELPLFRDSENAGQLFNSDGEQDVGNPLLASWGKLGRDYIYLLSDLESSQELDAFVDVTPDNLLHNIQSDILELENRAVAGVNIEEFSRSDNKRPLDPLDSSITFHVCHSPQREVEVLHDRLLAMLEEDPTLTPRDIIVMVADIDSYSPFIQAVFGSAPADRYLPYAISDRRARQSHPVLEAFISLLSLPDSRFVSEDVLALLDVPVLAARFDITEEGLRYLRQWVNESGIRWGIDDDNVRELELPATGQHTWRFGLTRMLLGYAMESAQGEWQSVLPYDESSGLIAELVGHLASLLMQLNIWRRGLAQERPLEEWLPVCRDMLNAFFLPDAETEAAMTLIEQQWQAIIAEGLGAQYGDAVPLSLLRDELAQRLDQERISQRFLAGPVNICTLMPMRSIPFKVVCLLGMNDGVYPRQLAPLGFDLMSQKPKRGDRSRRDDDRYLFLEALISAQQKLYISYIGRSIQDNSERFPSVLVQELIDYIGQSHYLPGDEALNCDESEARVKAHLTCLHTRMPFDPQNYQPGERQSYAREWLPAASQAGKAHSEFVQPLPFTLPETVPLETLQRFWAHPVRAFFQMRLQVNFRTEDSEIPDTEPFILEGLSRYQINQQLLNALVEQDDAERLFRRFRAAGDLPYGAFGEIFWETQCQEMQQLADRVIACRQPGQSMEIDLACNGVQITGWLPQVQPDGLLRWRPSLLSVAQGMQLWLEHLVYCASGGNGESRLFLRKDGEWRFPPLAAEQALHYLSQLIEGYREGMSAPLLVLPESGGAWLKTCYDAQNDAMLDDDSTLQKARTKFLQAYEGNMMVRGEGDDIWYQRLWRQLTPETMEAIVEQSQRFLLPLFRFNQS
Exodeoxyribonuclease V, sequence (P08394 whole entry): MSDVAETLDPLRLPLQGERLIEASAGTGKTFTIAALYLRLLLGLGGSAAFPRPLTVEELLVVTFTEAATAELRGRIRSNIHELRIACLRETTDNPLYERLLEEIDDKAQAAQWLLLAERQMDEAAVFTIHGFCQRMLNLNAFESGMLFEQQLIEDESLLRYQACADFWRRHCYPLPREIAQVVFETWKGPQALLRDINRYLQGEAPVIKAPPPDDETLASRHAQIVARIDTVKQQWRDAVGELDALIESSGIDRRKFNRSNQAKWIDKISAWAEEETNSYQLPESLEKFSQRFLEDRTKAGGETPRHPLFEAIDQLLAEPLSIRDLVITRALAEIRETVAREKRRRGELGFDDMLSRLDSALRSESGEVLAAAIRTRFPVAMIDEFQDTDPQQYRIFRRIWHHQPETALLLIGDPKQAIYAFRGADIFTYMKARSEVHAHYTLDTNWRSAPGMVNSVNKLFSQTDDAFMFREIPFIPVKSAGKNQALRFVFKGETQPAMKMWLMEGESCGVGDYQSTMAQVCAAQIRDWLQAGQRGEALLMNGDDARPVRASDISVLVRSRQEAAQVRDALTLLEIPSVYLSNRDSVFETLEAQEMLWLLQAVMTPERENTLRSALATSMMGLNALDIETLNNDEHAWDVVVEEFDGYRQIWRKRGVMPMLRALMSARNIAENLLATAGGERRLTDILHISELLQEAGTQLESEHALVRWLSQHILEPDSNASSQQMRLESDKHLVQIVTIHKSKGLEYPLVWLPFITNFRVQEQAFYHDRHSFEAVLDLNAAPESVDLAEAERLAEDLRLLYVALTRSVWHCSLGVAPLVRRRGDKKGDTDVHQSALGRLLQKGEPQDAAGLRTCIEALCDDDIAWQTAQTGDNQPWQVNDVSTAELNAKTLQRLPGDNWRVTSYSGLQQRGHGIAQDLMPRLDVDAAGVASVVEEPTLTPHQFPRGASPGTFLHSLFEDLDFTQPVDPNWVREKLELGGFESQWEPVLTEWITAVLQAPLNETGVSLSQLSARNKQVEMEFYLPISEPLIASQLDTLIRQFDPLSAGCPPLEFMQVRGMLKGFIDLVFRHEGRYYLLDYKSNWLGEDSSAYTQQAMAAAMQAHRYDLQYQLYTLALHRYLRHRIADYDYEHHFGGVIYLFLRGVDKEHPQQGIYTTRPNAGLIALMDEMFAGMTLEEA

Phospholipase A2 = Phospholipase A2 (Homo sapiens, UniProt P04054); assay type: functional;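 also: confirmatory dose-response counterscreen on phospholipase A2, testing hits that came from an ultra-high-throughput screen for ATG4B inhibitors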
Phospholipase A2, sequence (P04054 whole entry): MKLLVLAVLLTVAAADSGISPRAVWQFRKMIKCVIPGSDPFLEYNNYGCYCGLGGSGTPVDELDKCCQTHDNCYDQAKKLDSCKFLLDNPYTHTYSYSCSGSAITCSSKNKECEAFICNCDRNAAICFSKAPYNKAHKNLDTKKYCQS

[20] = Luminescence Cell-Based Dose Retest to Confirm Inhibitors of Cancer Stem Cells. [Related pubchem assays (depositor defined):AID2717, AID2721]; assay type: functional; conditions: Homo sapiens
[21] = Counterscreen for AddAB inhibitors: absorbance-based bacterial cell-based high throughput dose response assay for inhibitors of bacterial viability. [Related pubchem assays (depositor defined):AID435030, AID449728, AID449731, AID488942, AID488955, AID488956]; assay type: functional
[22] = Luminescence Cell-Based Dose Response HTS to Identify Inhibitors of 5'UTR Stem-Loop Driven Prion Protein mRNA Translation in H4 Neuroglioblastoma Cells. [Related pubchem assays: 1827 (Project Summary), 1813 (Primary HTS)]; assay type: functional
[23] = Luminescent dose response cell-based high throughput screening assay for inhibitors of the Janus kinase 2 mutant JAK2V617F. [Related pubchem assays: 1446 (Primary screen.), 1521 (Confirmation assay.), 1486 (Counter screen.)]; assay type: functional
Cysteine protease ATG4B = molecular target: T6, Cysteine protease ATG4B (Homo sapiens, UniProt Q9Y4P1); assay type: functional;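 also: Fluorescence-based dose-response confirmation assay measuring inhibition of ATG4B activity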
T6 sequence (Q9Y4P1 whole entry): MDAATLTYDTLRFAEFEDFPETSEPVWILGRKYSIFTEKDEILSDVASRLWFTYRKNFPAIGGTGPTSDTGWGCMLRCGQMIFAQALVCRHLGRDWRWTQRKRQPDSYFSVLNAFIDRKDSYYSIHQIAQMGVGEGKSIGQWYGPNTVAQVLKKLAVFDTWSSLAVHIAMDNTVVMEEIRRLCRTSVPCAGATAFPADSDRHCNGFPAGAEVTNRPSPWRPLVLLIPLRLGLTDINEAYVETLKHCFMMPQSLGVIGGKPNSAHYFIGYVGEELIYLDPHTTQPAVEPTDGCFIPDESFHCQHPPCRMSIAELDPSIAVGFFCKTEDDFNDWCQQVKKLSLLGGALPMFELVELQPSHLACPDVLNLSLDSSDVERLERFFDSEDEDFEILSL

H9c2 = experiment: cells; assay type: functional, cell-based; conditions: Rattus norvegicus, H9c2, Myocardium;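 also: confirmatory concentration-response retest of ultra-high-throughput screening hits for modulation of myocardial damage; cell death induced by hydrogen peroxide oxidative stress; compound pretreatment for 60 min then peroxide exposure for 2 h; potency is for protecting the cells against peroxide damage rather than for killing them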
[24] = HGIII-sPLA2 enzyme inhibition potency – biochemical, QFRET, IC50, dose response (AID 743457);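 also: green fluorescence rise as the enzyme cleaves BODIPY PC-A2 in liposomes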
[25] = molecular target: Heat shock protein HSP 90-alpha (Homo sapiens, UniProt P07900); assay type: functional, organism-based
INS1 = experiment: INS-1E survival protection against cytokine death – cell-based, luminescence, retest, dose response (AID 449756); assay type: functional; conditions: Rattus norvegicus;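 also: cell death triggered by IL-1 beta plus TNF-alpha plus IFN-gamma mixture; protective hits raise ATP signal compared with cytokine alone wells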

S=c1sc2c(Cl)ncnc2n1-c1ccccc1
EC50 [1]: 7.71 µM (active) | AC50 [2]: 13.2 µM (active) | AC50 [3]: 2.79 µM (active) | IC50 (CHO): 9.35 µM (active) | IC50 [4]: 3.55 µM | EC50 [5]: 2.26 µM (active) | EC50 (Beta-galactosidase): > 31.5 µM (inactive) | IC50 [6]: 4.7 µM (active) | EC50 (Mu-type opioid receptor): > 32 µM (inactive) | AC50 (Paired box protein Pax-8): 7.52 µM (active) | AC50 [7]: 8.88 µM (active) | EC50 [8]: 17.6 µM (active) | IC50 (Beta Lactamase): > 49.7 µM (inactive) | EC50 [9]: 14.4 µM (active) | IC50 [10]: 7.27 µM (active) | AC50 [11]: 8.81 µM (active) | AC50 [12]: 24.5 µM (active) | EC50 [13]: 8.14 µM (active) | EC50 [14]: > 32 µM (inactive) | AC50 [15]: 17.8 µM (active) | AC50 [16]: 60.6 µM (active)

COc1ccc(N(CC(=O)NC(C)C)C(=O)CCC(=O)Nc2ccccn2)cc1
IC50 [17]: > 79.4 µM (inactive) | IC50 [18]: > 79.4 µM (inactive) | IC50 [19]: > 79.4 µM (inactive)

COc1cccc(/C=N/NC(=O)c2[nH]c(C)c(C(=O)N/N=C/c3cccc(OC)c3O)c2C)c1O
EC50 [1]: 15.3 µM (active) | IC50 (Exodeoxyribonuclease V): > 119 µM (inactive) | IC50 (Phospholipase A2): 9.88 µM (active) | AC50 [20]: 2.44 µM (active) | IC50 [21]: > 119 µM (inactive) | EC50 [22]: 18.9 µM (active) | IC50 [23]: 2.8 µM (active) | EC50 [13]: 9.94 µM (active) | IC50 (Cysteine protease ATG4B): 7.03 µM (active)

NC(=O)Nc1ccccc1C(=O)NCCc1ccccc1
IC50 [17]: > 79.4 µM (inactive) | IC50 [18]: > 79.4 µM (inactive) | IC50 [19]: > 79.4 µM (inactive)

Cc1onc(-c2ccccc2)c1C(=O)NC(=S)NNC(=O)c1ccccc1O
IC50 (Exodeoxyribonuclease V): > 119 µM (inactive) | IC50 [21]: > 119 µM (inactive) | IC50 (H9c2): > 79 µM (inactive) | IC50 [24]: > 122 µM (inactive) | AC50 [25]: 2.92 µM (active) | AC50 (INS1): 7.21 µM (active)
